The source of these data is article PMC10304221, “Pharmacokinetic and Biomarker Quantification Studies on Vancomycin-Loaded PEGylated Liposomes and Its Potential to Reduce Vancomycin-Induced Kidney Injury: A Rat Study” (Pharmaceutics, 2023).

For data set [1] the following is noted: stated in the chemicals section, no method or reference given, cited from earlier work. The method, then: The 0.9% NaCl (Sing-Tong, Taiwan), Acetonitrile (CAN; Fisher Scientific U.K. Ltd., Loughborough, England), Bupivacaine (Marcaine®; AstraZeneca, Cambridge, UK), formic acid (FA; Merck, Germany), DMSO (Merck, Darmstadt, Germany), Ketalar injection (50 mg/mL; Pfizer, New York, NY, USA), methanol (MeOH; AENCORE, Australia), PBS (Sigma, USA), pentobarbital (Health-Tech Pharmaceutical Co., Ltd., Taiwan), Rompun injection (2%; Bayer, Leverkusen, Germany), and sodium heparin bodene (Pty) (Limited Trading as Intramed, Maharashtra, India). Acetonitrile, chloroform, and methanol VWR International (Radno ...

Data set [2] can be described thus: Plasma pharmacokinetics of vancomycin in rats, LC-MS/MS with non-compartmental analysis. To be noted: rat plasma.
Setting [3] is: day three, 150 mg/kg IV 3 min infusion qd x3, NCA, LC-MS/MS, mean, n = 6.

Molecules are shown by their SMILES. Where a name gives a salt, the structure may show the parent alone.

A word on the MRT: it is a mean duration of stay, worked out from the concentration-time curve. For the compound `CN[C@H](CC(C)C)C(=O)N[C@H]1C(=O)N[C@@H](CC(N)=O)C(=O)N[C@H]2C(=O)N[C@H]3C(=O)N[C@H](C(=O)N[C@H](C(=O)O)c4cc(O)cc(O)c4-c4cc3ccc4O)[C@H](O)c3ccc(c(Cl)c3)Oc3cc2cc(c3O[C@@H]2O[C@H](CO)[C@@H](O)[C@H](O)[C@H]2O[C@H]2C[C@](C)(N)[C@H](O)[C@H](C)O2)Oc2ccc(cc2Cl)[C@H]1O` [Vancomycin Hydrochloride, Vancomycin hydrochloride], the “Solubility in acetone, ether, and chloroform” value in data set [1] (acetone, ether, chloroform) was “insoluble”. In data set [1] (methanol), the Solubility in methanol result is given as “moderately soluble”. In addition, the Solubility in water entry in data set [1] (water) was “more than 100 mg/mL”. Moreover, the “Reduction in plasma vancomycin concentration compared to the PEG-VANCO-lipo group” value in data set [2] (day one at 0.5 and 1 h, day three at 1, 2 and 4 h, 150 mg/kg IV qd x3, n = 3, p ≤ 0.05, Tukey's two-way ANOVA) was 2–5 fold. The compound further registered a t1/2 in data set [2] (day three, 150 mg/kg IV 3 min infusion qd x3, NCA (WinNonlin), LC-MS/MS, mean, n = 6) of 13.26 h. Further, in data set [2] (setting [3]), the AUCINF was determined as 1461.44 µg·h/mL, the “C0 (initial concentration estimated by back-extrapolation)” value is 186.69 µg/mL, the CL is recorded as 1.7533 mL/min/kg and the mean residence time (MRT) turned out to be 17.073 h.
